According to ChEMBL document CHEMBL1132023, “Synthesis and anticancer evaluation of certain alpha-methylene-gamma-(4-substituted phenyl)-gamma-butyrolactone bearing thymine, uracil, and 5-bromouracil” (1999):

Experiments:
Type in all cases: functional
Settings in all cases: Homo sapiens
COLO 205 [1] = test: In vitro inhibition of Colon Cancer COLO 205 cell lines
Hs-578T [2] = test: In vitro inhibition of Breast Cancer Hs 578.T cell lines
IGROV-1 = test: In vitro inhibition of Ovarian Cancer IGROV1 cell lines
MDA-MB-435 = test: In vitro inhibition of Breast Cancer MDA-MB-435 cell lines
NCI-H460 [3] = test: In vitro inhibition of Non-Small Cell Lung Cancer NCI-H460 cell lines
PC-3 = test: In vitro inhibition of Prostate Cancer PC-3 cell lines
U-251 = test: In vitro inhibition of CNS Cancer U-251 cell lines
SW-620 = test: In vitro inhibition of Colon Cancer SW-620 cell lines
TK-10 = test: In vitro inhibition of Renal Cancer TK-10 cell lines
DU-145 = test: In vitro inhibition of Prostate Cancer DU-145 cell lines
RPMI-8226 [4] = test: In vitro inhibition of Leukemia RPMI-8226 cell lines
HL-60 [5] = test: In vitro inhibition of Leukemia HL-60(TB) cell lines(most sensitive cell)
Malme-3M = test: In vitro inhibition of Melanoma MALME-3M cell lines
LOX IMVI = test: In vitro inhibition of Melanoma LOX IM VI cell lines
SK-OV-3 = test: In vitro inhibition of Ovarian Cancer SK-OV-3 cell lines
ACHN = test: In vitro inhibition of Renal Cancer ACHN cell lines
A549 = test: In vitro inhibition of Non-Small Cell Lung Cancer A549/ATCC cell lines
SNB-19 [6] = test: In vitro inhibition of CNS Cancer SNB-19 cell lines(least sensitive cell)
Hs-578T [7] = test: In vitro inhibition of Breast Cancer Hs 578.T cell lines( least sensitive cell)
SNB-19 [8] = test: In vitro inhibition of CNS Cancer SNB-19 cell lines
HL-60 [9] = test: In vitro inhibition of Leukemia HL-60(TB) cell lines
COLO 205 [10] = test: In vitro inhibition of Colon Cancer COLO 205 cell lines( most sensitive cell)
NCI-H460 [11] = test: In vitro inhibition of Non-Small Cell Lung Cancer NCI-H460 cell lines(least sensitive cell)
RPMI-8226 [12] = test: In vitro inhibition of Leukemia RPMI-8226 cell lines( most sensitive cell)
HL-60 [13] = test: In vitro inhibition of Leukemia HL-60(TB) cell lines ( most sensitive cell)
HL-60 [14] = test: In vitro inhibition of Leukemia HL-60(TB) cell lines( most sensitive cell)
SNB-19 [15] = test: In vitro inhibition of CNS Cancer SNB-19 cell lines( least sensitive cell)
Hs-578T [16] = test: In vitro inhibition of Breast Cancer Hs 578.T cell lines(The least sensitive cell)
NCI-H460 [17] = test: In vitro inhibition of Non-Small Cell Lung Cancer NCI-H460 cell lines( least sensitive cell)

## C=C1CC(Cn2cc(Br)c(=O)[nH]c2=O)(c2ccc(-c3ccccc3)cc2)OC1=O (configuration not stated)
COLO 205 [1]
  GI50: 0.355 µM
Hs-578T [2]
  GI50: 4.79 µM
IGROV-1
  GI50: 1.2 µM
MDA-MB-435
  GI50: 1 µM
NCI-H460 [3]
  GI50: 10.5 µM
PC-3
  GI50: 1.26 µM
U-251
  GI50: 5.75 µM
SW-620
  GI50: 0.282 µM
TK-10
  GI50: 0.126 µM
DU-145
  GI50: 1.07 µM
RPMI-8226 [4]
  GI50: 0.129 µM
HL-60 [5]
  GI50: 0.0457 µM
Malme-3M
  GI50: 1.55 µM
LOX IMVI
  GI50: 0.851 µM
SK-OV-3
  GI50: 6.03 µM
ACHN
  GI50: 2.51 µM
A549
  GI50: 6.17 µM
SNB-19 [6]
  GI50: 14.5 µM

## C=C1CC(Cn2ccc(=O)[nH]c2=O)(c2ccc(F)cc2)OC1=O (configuration not stated)
IGROV-1
  GI50: 13.2 µM
MDA-MB-435
  GI50: 10.7 µM
NCI-H460 [3]
  GI50: 13.8 µM
PC-3
  GI50: 16.2 µM
U-251
  GI50: 15.5 µM
SW-620
  GI50: 4.9 µM
Hs-578T [7]
  GI50: 20.4 µM
TK-10
  GI50: 14.5 µM
DU-145
  GI50: 15.1 µM
SNB-19 [8]
  GI50: 14.8 µM
HL-60 [9]
  GI50: 3.72 µM
RPMI-8226 [4]
  GI50: 5.37 µM
Malme-3M
  GI50: 7.59 µM
COLO 205 [10]
  GI50: 3.02 µM
LOX IMVI
  GI50: 6.03 µM
SK-OV-3
  GI50: 15.1 µM
ACHN
  GI50: 13.2 µM
A549
  GI50: 17 µM

## C=C1CC(Cn2cc(Br)c(=O)[nH]c2=O)(c2ccc(F)cc2)OC1=O (configuration not stated)
COLO 205 [1]
  GI50: 2.24 µM
Hs-578T [2]
  GI50: 14.5 µM
IGROV-1
  GI50: 12.9 µM
MDA-MB-435
  GI50: 4.07 µM
PC-3
  GI50: 11.7 µM
U-251
  GI50: 8.51 µM
SW-620
  GI50: 2.75 µM
TK-10
  GI50: 17 µM
DU-145
  GI50: 16.2 µM
SNB-19 [8]
  GI50: 19.5 µM
HL-60 [9]
  GI50: 1.74 µM
Malme-3M
  GI50: 4.57 µM
NCI-H460 [11]
  GI50: 20.9 µM
LOX IMVI
  GI50: 3.39 µM
RPMI-8226 [12]
  GI50: 0.468 µM
SK-OV-3
  GI50: 16.6 µM
ACHN
  GI50: 4.47 µM

## C=C1CC(Cn2cc(C)c(=O)[nH]c2=O)(c2ccc(-c3ccccc3)cc2)OC1=O (configuration not stated)
COLO 205 [1]
  GI50: 1.41 µM
IGROV-1
  GI50: 1.91 µM
MDA-MB-435
  GI50: 2 µM
NCI-H460 [3]
  GI50: 13.8 µM
PC-3
  GI50: 2.51 µM
U-251
  GI50: 13.2 µM
SW-620
  GI50: 1.02 µM
Hs-578T [7]
  GI50: 25.7 µM
TK-10
  GI50: 1.58 µM
DU-145
  GI50: 1.66 µM
SNB-19 [8]
  GI50: 16.6 µM
RPMI-8226 [4]
  GI50: 0.646 µM
Malme-3M
  GI50: 3.72 µM
LOX IMVI
  GI50: 1.74 µM
SK-OV-3
  GI50: 13.5 µM
ACHN
  GI50: 7.59 µM
A549
  GI50: 12.3 µM
HL-60 [13]
  GI50: 0.234 µM

## C=C1CC(Cn2ccc(=O)[nH]c2=O)(c2ccc(-c3ccccc3)cc2)OC1=O (configuration not stated)
HL-60 [14]
  GI50: 0.105 µM
COLO 205 [1]
  GI50: 0.174 µM
Hs-578T [2]
  GI50: 7.41 µM
SNB-19 [15]
  GI50: 17.4 µM
IGROV-1
  GI50: 0.708 µM
MDA-MB-435
  GI50: 0.49 µM
NCI-H460 [3]
  GI50: 10.2 µM
PC-3
  GI50: 1.32 µM
U-251
  GI50: 10 µM
SW-620
  GI50: 0.17 µM
TK-10
  GI50: 0.955 µM
DU-145
  GI50: 0.2 µM
RPMI-8226 [4]
  GI50: 0.214 µM
Malme-3M
  GI50: 1.58 µM
LOX IMVI
  GI50: 0.209 µM
SK-OV-3
  GI50: 10.5 µM
ACHN
  GI50: 2.29 µM
A549
  GI50: 10.7 µM

## C=C1CC(Cn2cc(C)c(=O)[nH]c2=O)(c2ccc(F)cc2)OC1=O (configuration not stated)
IGROV-1
  GI50: 5.5 µM
MDA-MB-435
  GI50: 5.62 µM
PC-3
  GI50: 9.12 µM
U-251
  GI50: 11.5 µM
SW-620
  GI50: 3.63 µM
TK-10
  GI50: 4.57 µM
DU-145
  GI50: 7.59 µM
SNB-19 [8]
  GI50: 14.8 µM
HL-60 [9]
  GI50: 2.57 µM
RPMI-8226 [4]
  GI50: 3.55 µM
Hs-578T [16]
  GI50: 19.1 µM
Malme-3M
  GI50: 3.55 µM
NCI-H460 [17]
  GI50: 19.1 µM
COLO 205 [10]
  GI50: 1.58 µM
LOX IMVI
  GI50: 4.27 µM
SK-OV-3
  GI50: 16.2 µM
ACHN
  GI50: 3.55 µM
A549
  GI50: 17.8 µM
